Laboratory results taken from patent publication US20220056014A1, “PHENYLPYRROLIDINE COMPOUND AND USE THEREOF” (WUHAN HUMANWELL INNOVATIVE DRUG RESEARCH AND DEVELOPMENT …, priority 2018, published 2022).
Where two headings read alike, the source gives them in different places.

Tests used:
[1] = Mouse pharmacokinetic test; format: in vivo, CD-1 mice; settings: male, CD-1, plasma, oral gavage 10 mg/kg
Method: (§1) In the rat pharmacokinetic test, 3 male SD rats (180-240 g) were fasted overnight, and orally administered with 10 mg/kg of compound to be tested. Blood was collected before the administration, and 15 min, 30 min, 1 h, 2 h, 4 h, 8 h, and 24 h hours after the administration. The blood sample was centrifuged at 8000 rpm for 6 min at 4° C., and the plasma was collected and stored at −20° C. The plasma collected at each time point was added and mixed with 3-5 times the amount of acetonitrile solution containing an internal standard, vortexed for 1 min, centrifuged at 13,000 rpm for 10 min at 4° C. The supernatant was taken and mixed with 3 times the amount of water, and an appropriate amount of the mixture was taken for LC-MS/MS analysis. The main pharmacokinetic parameters were analyzed with WinNonlin 7.0 software non-compartmental model.
(§2) In the mouse pharmacokinetic test, 9 male CD-1 mice (20-25 g) were fasted overnight, and orally administered with 10 mg/kg of the compound to be tested. Bloods of 3 mice were collected at each time point, and bloods of 9 mice were alternately collected in total. In the pharmacokinetic test in canine, 3 male beagle dogs (8-10 kg) were fasted overnight, and orally administered with 5 mg/kg of the compound to be test. In the pharmacokinetic test of cynomolgus monkeys, 3 male cynomolgus monkeys (4 to 6.5 kg) were fasted overnight, and orally administered 20 mg/kg of the compound to be test. The remaining processes are the same as those of the rat pharmacokinetic test.

[2] = test system: LPS-induced secretion of TNFα in human PBMCs; assay: LPS-induced secretion of TNFα in human PBMCs; format: cell-based; settings: Homo sapiens, PBMC, 24 h, LPS 10 ng/ml
Method: Extraction process of peripheral blood mononuclear cells (PBMCs): one unit of human peripheral blood concentrate (concentrated from 200 cc peripheral blood) was sucked and added with 0.9% saline until a total volume reached 120 ml, and mixed homogenously. 15 ml Lymphoprep™ was added into 50 ml centrifuge tube, and then 30 ml of diluted blood concentrate was carefully and slowly added thereto, allowing the diluted blood to be stacked on the layered solution and preventing the diluted blood from being mixed into the separated solutions or breaking the surface of the separated solution, wherein a ratio of Lymphoprep™ to the diluted blood was 1:2. The centrifuge tubes were balanced and placed in a horizontal centrifuge (eppendorf, 5810R), and centrifuged at 800 g and 20° C. for 20 min. The centrifuge tubes were carefully taken out. PBMCs were absorbed by directly inserting the Pasteur pipette deep into the buffy coat. The obtained PBMCs were gently pipetted with 3 times the volume of 0.9% normal saline or PBS (without calcium or magnesium ions) to mix homogenously. After that, the cells were centrifuged at 250 g and 20° C. for 10 min, the supernatant was removed to remove the platelets remaining in the cell suspension. The obtained cell pellet was resuspended in 20 ml of PBS, and counted using trypan blue.
Compound screening by using PBMCs: the PBMC suspension obtained above was centrifuged to remove PBS, then resuspended in complete medium (RPMI1640+10% FBS+1% P/S) and counted. 100 μL/well of the cells was seeded at 5×10^4/well. Each of the compounds to be screened was prepared as 4 times the final concentration, which was added to the cells at 50 μL/well. The compound was pre-incubated for 30 min in advance of being added to the cells. Meanwhile, control wells to which the compound was not added were provided. A final stimulation concentration of LPS was 10 ng/ml, and LPS was formulated as 4 times the final stimulation concentration, and added to the cells at 50 μL/well. Meanwhile, control wells, i.e., wells without LPS were provided. The cells were incubated for 24 h, and 10% of the supernatant was collected for detection. The obtained supernatant was detected using Invitrogen's Human TNF-α kit (REF: 88-7346-88).

[3] = test system: LPS-stimulated TNF-α release; assay: LPS-stimulated TNF-α release in mice; format: in vivo, Balb/c mice; settings: Mus musculus, oral 50 mg/kg (positive control 100 mg/kg), 1 mg/kg LPS i.p.
Method: 18 Balb/c mice (6 to 8 weeks) were randomly assigned to a blank group, a model group, and an administration group, 6 mice in each group. A vehicle (blank group, model group) or 50 mg/kg compound (administration group, where the dose for the positive control group was 100 mg/kg) was orally administrated. 30 min after the oral administration, PBS (blank group) or 1 mg/kg LPS (model group and administration group) was injected intraperitoneally. 90 min or 120 min after the intraperitoneal injection, blood was collected from the hearts of the mice, and still stood at 2-8° C. for 4 hours, and centrifuged at 5000 rpm for 10 min to collect the serum. The serum was stored at −80° C. for testing.
The serum TNF-α level was tested using a mouse TNF-α detection kit (Mouse TNFa ELISA kit: Biolegend, Cat: 430904). The inhibitory activity of the compounds against the TNF-α release was calculated based on the serum TNF-α level.
Inhibitory activity of compound %={1−(TNFα concentration of administration group−TNFα concentration of blank group)/(TNFα concentration of model group−TNFα concentration of blank group)}×100%.

[4] = Pharmacokinetic test in canine; format: in vivo, beagle dogs; settings: male, beagle, dog, plasma, oral gavage 5 mg/kg
Method: as §1, §2

Rat pharmacokinetic test = format: in vivo, SD rats; settings: male, Sprague-Dawley (SD), plasma, oral gavage 10 mg/kg
Method: as §1

PDE4D = target: T1, PDE4D (Homo sapiens, UniProt Q08499); assay: PDE4D enzyme activity assay (PDE-Glo Phosphodiesterase Assay Kit); format: biochemical
T1 construct: purchased Enzo Life Sciences BML-SE523-0020
Method: (§3) For the previously synthesized compounds, the inhibitory activity of the compounds against PDE4B and against PDE4D was tested by using PDE-Glo Phosphodiesterase Assay Kit (promega, V1361). In short, in accordance with the instructions of the kit, a concentrated stock solution (10 mM) the compound to be tested was first prepared with DMSO solvent, and the concentrated stock solution was then diluted into 10× working solutions with a Reaction buffer provided in the kit. With the Reaction buffer, on ice, PDE4B enzyme (Enzo Life Sciences, BML-SE522-0020) was diluted to a concentration of 1 ng/μl to obtain a PDE4B enzyme working solution, and PDE4D enzyme (Enzo Life Sciences, BML-SE523-0020) was diluted to a concentration of 4 ng/μl to obtain a PDE4D enzyme working solution. 1.5 μl of the PDE4B working solution (or PDE4D working solution) and 1 μl of the compound working solution were added to wells of 384-well plate (Corning, CLS3707), and incubated with shaking at room temperature for 5 min, followed by adding 2.5 μl of cAMP (in Reaction buffer, 2 μM) per well, incubating with shaking at room temperature for 20 min. 2.5 μl/well of 1× Termination Buffer, and then 2.5 μl/well of 1× Detection Buffer were added, and further incubated with shaking at room temperature for 20 min. 10 μl/well of 1× Kinase-Glo was added, and the plate was incubated with shaking at room temperature for 10 min, and bioluminescence was measured with PheraStar instrument. The experimental results were plotted with GraphPad Prism software, and fitted to calculate IC50 of each compound.

PDE4B = target: T2, PDE4B (Homo sapiens, UniProt Q07343); assay: PDE4B enzyme activity assay (PDE-Glo Phosphodiesterase Assay Kit); format: biochemical; settings: for IC50 (PDE4D)/IC50 (PDE4B): selectivity ratio
T2 construct: purchased Enzo Life Sciences BML-SE522-0020
Method: as §3

[5] = 2 h, blood 120 min after LPS, read-out: Inhibition rate (%) of LPS-stimulated TNF-α release, 120 min
[6] = 1.5 h, blood 90 min after LPS, read-out: Inhibition rate (%) of LPS-stimulated TNF-α release, 90 min

T1 sequence (Q08499 whole entry): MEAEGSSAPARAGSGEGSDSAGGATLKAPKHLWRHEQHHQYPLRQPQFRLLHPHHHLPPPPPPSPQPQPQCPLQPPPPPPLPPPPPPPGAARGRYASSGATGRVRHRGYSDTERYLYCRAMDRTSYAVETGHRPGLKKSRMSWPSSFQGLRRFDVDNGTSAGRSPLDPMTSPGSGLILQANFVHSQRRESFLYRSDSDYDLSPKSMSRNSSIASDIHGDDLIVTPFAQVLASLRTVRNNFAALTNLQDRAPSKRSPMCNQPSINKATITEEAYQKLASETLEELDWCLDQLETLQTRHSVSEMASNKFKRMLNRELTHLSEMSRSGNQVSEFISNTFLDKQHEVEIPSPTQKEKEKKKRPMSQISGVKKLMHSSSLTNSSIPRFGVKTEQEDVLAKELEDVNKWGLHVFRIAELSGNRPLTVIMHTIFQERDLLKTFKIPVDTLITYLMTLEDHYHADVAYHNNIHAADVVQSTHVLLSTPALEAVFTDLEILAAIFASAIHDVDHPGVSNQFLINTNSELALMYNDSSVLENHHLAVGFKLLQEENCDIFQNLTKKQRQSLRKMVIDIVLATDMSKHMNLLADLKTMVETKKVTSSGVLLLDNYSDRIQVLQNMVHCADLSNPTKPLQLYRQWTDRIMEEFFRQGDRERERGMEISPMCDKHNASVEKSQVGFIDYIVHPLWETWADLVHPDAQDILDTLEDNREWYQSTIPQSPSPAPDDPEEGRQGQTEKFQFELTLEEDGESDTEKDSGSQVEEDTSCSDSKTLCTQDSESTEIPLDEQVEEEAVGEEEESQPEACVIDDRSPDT
T2 sequence (Q07343 whole entry): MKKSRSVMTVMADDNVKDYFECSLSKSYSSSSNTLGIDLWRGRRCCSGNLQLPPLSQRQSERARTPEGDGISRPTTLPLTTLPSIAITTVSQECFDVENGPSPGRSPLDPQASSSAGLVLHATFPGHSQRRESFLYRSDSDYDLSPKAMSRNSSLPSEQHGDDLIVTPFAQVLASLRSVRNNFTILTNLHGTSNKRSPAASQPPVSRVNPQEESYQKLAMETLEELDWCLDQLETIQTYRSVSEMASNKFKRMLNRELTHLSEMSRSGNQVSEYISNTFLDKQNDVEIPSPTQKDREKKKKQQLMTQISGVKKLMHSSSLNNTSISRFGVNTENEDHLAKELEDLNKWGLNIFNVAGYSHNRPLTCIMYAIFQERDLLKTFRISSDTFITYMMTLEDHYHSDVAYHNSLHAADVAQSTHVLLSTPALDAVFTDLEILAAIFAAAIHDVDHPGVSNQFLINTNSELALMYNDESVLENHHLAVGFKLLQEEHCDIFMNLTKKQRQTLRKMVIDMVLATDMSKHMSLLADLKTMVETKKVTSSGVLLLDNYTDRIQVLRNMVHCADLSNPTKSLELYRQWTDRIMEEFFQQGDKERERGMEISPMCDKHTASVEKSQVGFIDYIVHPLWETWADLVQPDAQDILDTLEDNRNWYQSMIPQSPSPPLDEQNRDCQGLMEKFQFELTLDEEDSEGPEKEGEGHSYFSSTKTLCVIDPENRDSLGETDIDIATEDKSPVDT

SMILES | AUC(0-t) [1] | Cmax [1] | Tmax [1] | IC50 [2] | inhibition in vivo at 50 mg/kg [3, 5] | AUC(0-t) [4] | Cmax [4] | Tmax [4] | AUC(0-t) (Rat pharmacokinetic test) | Cmax (Rat pharmacokinetic test) | Tmax (Rat pharmacokinetic test) | IC50 (PDE4D) | IC50 (PDE4B) | IC50 (PDE4D)/IC50 (PDE4B) (PDE4B) | inhibition in vivo at 50 mg/kg [3, 6]
COc1ccc([C@@H]2CN(C(=O)[C@@H](O)CO)C[C@@]2(C)[C@@H](C)O)cc1OC1CN(c2cc(C)c(C)cn2)C1 [Compound 008, (S)-1-((3S,4S)-4-(3-((1-(4,5-dimethylpyridin-2-yl)azetidin-3-yl)oxy)-4-methoxyphenyl)-3-((R)-1-hydroxyethyl)-3-methylpyrrolidin-1-yl)-2,3-dihydroxypropan-1-one] | 625 ng·h/mL | 298 ng/mL | 30 min | 1.81 nM | 63% | 1760 ng·h/mL | 534 ng/mL | 30 min | 443 ng·h/mL | 133 ng/mL | 15 min | 3.58 nM | 1.46 nM | 2.45 | 
CCOc1ccc(N2CC(Oc3cc([C@@H]4CN(C(=O)[C@@H](O)CO)C[C@@]4(C)[C@@H](C)O)ccc3OC)C2)nc1 [Compound 022, (S)-1-((3S,4S)-4-(3-((1-(5-ethoxypyridin-2-yl)azetidin-3-yl)oxy)-4-methoxyphenyl)-3-((R)-1-hydroxyethyl)-3-methylpyrrolidin-1-yl)-2,3-dihydroxypropan-1-one] | 215 ng·h/mL | 186 ng/mL | 15 min | 1.01 nM |  |  |  |  | 410 ng·h/mL | 221 ng/mL | 19.8 min | 1.18 nM | 0.75 nM | 1.57 | 60.7%
COc1ccc([C@@H]2CN(C(=O)[C@@H](O)CO)C[C@@]2(C)[C@@H](C)O)cc1OC1CN(c2cc(C)c(Cl)cn2)C1 [Compound 010, (S)-1-((3S,4S)-4-(3-((1-(5-chloro-4-methylpyridin-2-yl)azetidin-3-yl)oxy)-4-methoxyphenyl)-3-((R)-1-hydroxyethyl)-3-methylpyrrolidin-1-yl)-2,3-dihydroxypropan-1-one] | 645 ng·h/mL | 314 ng/mL | 15 min | 1.05 nM | 65.4% | 1640 ng·h/mL | 413 ng/mL | 49.8 min | 95.3 ng·h/mL | 40.4 ng/mL | 19.8 min | 0.95 nM | 1.9 nM | 0.50 | 47.6%
COc1ccc([C@@H]2CN(C(=O)[C@@H](O)CO)C[C@@]2(C)[C@@H](C)O)cc1OC1CN(c2cc(C#N)c(C)cn2)C1 [Compound 001, 2-(3-(5-((3S,4S)-1-((S)-2,3-dihydroxypropanoyl)-4-((R)-1-hydroxyethyl)-4-methylpyrrolidin-3-yl)-2-methoxyphenoxy)azetidin-1-yl)-5-methylisonicotinonitrile] | 311 ng·h/mL | 339 ng/mL | 15 min | 0.36 nM | 39.5% |  |  |  | 23.5 ng·h/mL | 22.5 ng/mL | 19.8 min | 0.67 nM | 0.91 nM | 0.74 | 53.6%
COc1ccc([C@@H]2CN(C(=O)[C@@H](O)CO)C[C@@]2(C)[C@@H](C)O)cc1OC1CN(c2cc(Cl)c(C)cn2)C1 [Compound 002, (S)-1-((3S,4S)-4-(3-((1-(4-chloro-5-methylpyridin-2-yl)azetidin-3-yl)oxy)-4-methoxyphenyl)-3-((R)-1-hydroxyethyl)-3-methylpyrrolidin-1-yl)-2,3-dihydroxypropan-1-one] | 386 ng·h/mL | 355 ng/mL | 15 min | 0.56 nM | 66.2% | 534 ng·h/mL | 198 ng/mL | 60 min | 103 ng·h/mL | 41.6 ng/mL | 19.8 min | 0.16 nM | 0.43 nM | 0.37 | 
